Test results from ChEMBL document CHEMBL1201862, “PubChem BioAssay data set” (2004).
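Dose response: 5 concentrations. Exposure: 48 h. Format: 96-well plates. Endpoint: linear interpolation; highest concentration if not reached. The concentration for 50% growth inhibition is given as GI50.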 Activity calls are given as the source filed them. Rule as the data show it: active = GI50 up to about 1.1 µM and inactive = higher.

How the values were obtained:
Test in all cases: inhibition of tumour cell growth, NCI panel, 48 h
[1] = system: NCI-H460
[2] = system: SW-620
[3] = system: RXF 393
[4] = system: CCRF-CEM
[5] = system: K562
[6] = system: A549
[7] = system: OVCAR-3
[8] = system: M14
[9] = system: 786-0
[10] = system: TK-10
[11] = system: SK-MEL-28
[12] = system: HL-60
[13] = system: HOP-62
[14] = system: EKVX
[15] = system: OVCAR-4
[16] = system: OVCAR-5
[17] = system: SF-268
[18] = system: SK-MEL-2
[19] = system: NCI-H226

Measured: GI50

Cc1c(C#N)c(=O)[nH]c(=O)n1CCN1CCN(C(=O)NCCCCCCNC(=O)N2CCN(CCn3c(C)c(C#N)c(=O)[nH]c3=O)CC2)CC1
inactive: [1] > 100 µM | [2] > 100 µM | [3] > 100 µM | [4] > 100 µM | [5] > 100 µM | [6] > 100 µM | [7] > 100 µM | [8] > 100 µM | [9] > 100 µM | [10] > 100 µM | [11] > 100 µM | [12] > 100 µM | [13] > 100 µM | [14] > 100 µM | [15] > 100 µM

N#Cc1cccc(C2C(=O)c3ccc(C(=O)c4ccc5c(c4)C(=O)N(c4ccc(Oc6ccc(N7C(=O)c8ccc(C(=O)c9ccc%10c(c9)C(=O)N(c9cccc(C#N)c9)C%10=O)cc8C7=O)cc6)cc4)C5=O)cc3C2=O)c1 (centres undefined)
inactive: [1] > 100 µM | [2] > 100 µM | [3] > 100 µM | [4] > 100 µM | [5] > 100 µM | [6] > 100 µM | [16] > 100 µM | [7] > 100 µM | [17] > 100 µM | [18] > 100 µM | [8] > 100 µM | [9] > 100 µM | [10] 40.2 µM | [11] > 100 µM | [12] > 100 µM | [13] > 100 µM | [14] > 100 µM | [15] > 100 µM

Cc1cc(C)c(S(=O)(=O)ONC(=O)OC(C)(C)C)c(C)c1
inactive: [1] > 100 µM | [2] > 100 µM | [3] > 100 µM | [4] > 100 µM | [5] > 100 µM | [6] > 100 µM | [16] > 100 µM | [7] > 100 µM | [17] > 100 µM | [18] > 100 µM | [8] > 100 µM | [9] > 100 µM | [10] > 100 µM | [11] > 100 µM | [12] > 100 µM | [13] > 100 µM | [14] > 100 µM | [15] > 100 µM

Nn1c(-c2ccccc2)nc2ccc(Br)cc2c1=O
inactive: [1] 61.4 µM | [2] 46.6 µM | [19] 57.5 µM | [4] 20.2 µM | [5] 29.3 µM | [6] > 100 µM | [16] > 100 µM | [7] 24 µM | [17] 30.7 µM | [18] 57.1 µM | [8] 54.1 µM | [9] 47.2 µM | [10] > 100 µM | [11] > 100 µM | [12] 15.6 µM | [13] > 10 µM | [14] 31.9 µM | [15] 28.6 µM

NC(=O)C(=O)C1CCC2=C(Sc3ccccc3N2)C1=O (centres undefined)
inactive: [1] > 100 µM | [2] > 100 µM | [3] > 100 µM | [4] > 10 µM | [5] > 100 µM | [6] > 100 µM | [16] > 100 µM | [7] > 100 µM | [17] > 100 µM | [18] > 100 µM | [8] > 100 µM | [9] > 100 µM | [10] > 100 µM | [11] > 100 µM | [12] > 100 µM | [13] > 100 µM | [14] > 100 µM | [15] > 100 µM

C[Si](C)(C)/C=C/CCC(C=O)(CCCl)c1ccccc1 (centres undefined)
inactive: [1] 31.6 µM | [2] 28.6 µM | [3] 22.4 µM | [4] 29.6 µM | [5] 25 µM | [6] 23.4 µM | [16] 25.5 µM | [7] 16.7 µM | [17] 31.7 µM | [18] 14.8 µM | [8] 28.3 µM | [9] 16.3 µM | [10] 56.1 µM | [11] 32.9 µM | [12] 6.98 µM | [14] 26 µM

Clc1ccc2c(Cl)ncnc2c1
inactive: [1] > 100 µM | [2] > 100 µM | [19] 32.7 µM | [4] > 100 µM | [5] > 100 µM | [6] > 100 µM | [16] > 100 µM | [7] > 100 µM | [17] > 100 µM | [18] > 100 µM | [8] > 100 µM | [9] > 100 µM | [10] > 100 µM | [11] > 100 µM | [12] > 100 µM | [13] > 100 µM | [14] 63.4 µM | [15] > 100 µM

CCCC(O)c1ccc2[nH]c3c(C)cc([N+](=O)[O-])c(C)c3c2c1 (centres undefined)
inactive: [1] > 100 µM | [2] 99.1 µM | [19] > 100 µM | [4] > 100 µM | [5] 57.4 µM | [6] 39.3 µM | [16] > 100 µM | [7] 83.2 µM | [17] > 100 µM | [18] > 100 µM | [8] > 100 µM | [9] 27.4 µM | [10] 23 µM | [11] > 100 µM | [12] > 100 µM | [13] > 100 µM | [14] > 100 µM | [15] > 100 µM
